Values quoted from earlier work in publication PMC10322880 (Communications Biology, 2023).

Tested on: SARS-CoV-2
Details: phase 2/3 clinical trial

## Cn1cnc(Cn2c(=O)[nH]/c(=N\c3cc4cn(C)nc4cc3Cl)n(Cc3cc(F)c(F)cc3F)c2=O)n1 [ensitrelvir]
  SARS-CoV-2 clearance: rapid SARS-CoV-2 clearance
  tolerability: well tolerated
